From EP2742955A1, “Nanoparticles based on bioconjugate of GAG” (Centre National de la Recherche Scientifique, priority 2012, dated 2014)

Assays:
[1] = Plasma Fpx concentration (anti-FXa assay) after oral and intravenous administration of aqueous nanoparticulate suspensions; assay type: in vivo, male Sprague-Dawley rats
Method: The anticoagulant activity of Fpx:Sq^+ aqueous nanoparticulate suspensions of example 4 was evaluated in vivo after oral and intravenous (IV) administration in male Sprague-Dawley rats. The following formulations were administrated orally to the rats (n=4) with the help of feeding needle (Harvard Apparatus, France): NPs at the optimized ratio 1:6 at 25 mg/kg (eq. Fpx) and 50 mg/kg (eq. Fpx), Fpx saline solution at 50 mg/kg and isotonic sodium chloride solution as control. The volume of the administrated solution was 1 mL per 100 g of the rat weight. Blood samples were periodically taken from the jugular vein after anesthesia with isoflurane and the plasma concentration of active Fpx was estimated using an anti-FXa assay. Additionally, a saline solution of Fpx and NPs at the optimized ratio 1:6, both at 200 µg/kg (eq. Fpx) were injected intravenously to the rats (n=3) through the tail vein after anesthesia with isoflurane. Blood samples were periodically taken and the plasma concentration of active Fpx was estimated using an anti-FXa assay. […]

[2] = Permeation of Fpx across fresh intestinal tissue in Ussing-type chambers; assay type: in vitro ADME, male Sprague Dawley rats
Method: The permeation of Fpx in solution was investigated through the intestinal epithelium at 37°C, in the two directions (mucosal-to-serosal, M-S, absorptive direction and serosal-to-mucosal, S-M, secretory direction) and in presence or not of verapamil, an inhibitor of P-gp (P-glycoprotein) (Fig. 3).
Ussing-type chambers were used to evaluate the permeation of Fpx in fresh intestinal tissues, under the free form and loaded in NPs. For permeation studies non fasting male Sprague Dawley rats weighting 250 to 300 g were used. After sacrificing the rats, jejunum from fresh small intestine was excised and rinsed with chilled physiological solution (isotonic Sorensen's Phosphate buffer solution: 0.2 mM Na2HPO4; 0.2 mM NaH2PO4, H2O with a pH of 6.8). The excised intestine was cut into segments of 2 - 3 cm length and mounted in Ussing chamber (0.75 cm^2 surface area) bathed with Sorensen buffer pH 6.8 in mucosal and serosal sides. The system was maintained at 37°C and continuously oxygenated with O2/CO2 (95% /5%). After equilibration at the temperature of the experiment (15 min), Fpx in solution or loaded in NPs at the concentration of 2 mg/mL were added to the donor compartment. For this purpose, 1.2 mL of Fpx:Sq^+ NPs (at Fpx concentration of 5 mg/mL were diluted in 1.8 mL of Sorensen buffer pH 6.8 prior to the addition to the donor chamber. After 0, 30, 60, 90, 120, 150 and 180 min, 500 µL samples were taken out from the acceptor chambers and replaced with the same volume of fresh transport medium pre-equilibrated at 37°C. The samples were stored at 4°C until analysis. Fpx was quantified by the Azure A assay and Anti-Xa assay. The influence of verapamil was investigated on the intestinal permeation of Fpx in solution and loaded in NPs. For this purpose, verapamil was added to the Sorensen buffer at the concentration of 0.1 mM in the serosal compartment five minutes before the experiment.
Thus, figure 3 is a diagram showing a comparison of the permeation of Fpx across the intestinal tissue under the following experimental conditions: mucosal-to-serosal direction (M-S, continuous lines); serosal-to-mucosal direction (S-M, broken line) and in presence (open symbols) or in absence (filled symbols) of verapamil. Donor chambers contained initially 2 mg/mL of Fpx. Data represent means ± SEM of at least six independent experiments.
Donor chambers contained 2 mg/mL of Fpx and Sq^+ in molar ratio Fpx to Sq^+ 1:6. Data represent means ± SEM of at least six independent experiments.
At last, figure 5 represents a diagram showing net fluxes of Fpx in free form or in Fpx:Sq+ NPs in the presence or in the absence of verapamil when added in serosal side at 180 min. Values are indicated as means SEM at least six experiments. (** p< 0.05) Fpx:Sq^+ NPs vs Fpx:Sq NPs + verapamil; (* p< 0.05) Fpx vs Fpx:Sq^+ NPs; (**** p<0.05) Fpx + verapamil vs Fpx.

- Cmax ([1]; male, Sprague-Dawley, rat, plasma, 200 ug/kg, intravenous, 200 µg/kg (eq. Fpx), rats n=3, read-out: maximum plasma concentration (Cmax)): 0.16 µg/mL
- oral absorption (concentration-time profile vs control group) ([1]; oral, saline solution 50 mg/kg): not absorbed
- permeated Fpx concentration ([2]; M-S direction, 120 min, absence of verapamil, donor 2 mg/mL Fpx, 37°C): 4.5 µg/mL
- permeated Fpx concentration ([2]; M-S direction, 180 min, absence of verapamil, donor 2 mg/mL Fpx, 37°C): 4.9 µg/mL
- permeated Fpx concentration ([2]; M-S direction, 180 min, verapamil 0.1 mM in the receptor (serosal) compartment): 12.6 µg/mL
- permeated Fpx concentration ([2]; S-M direction, 180 min, absence of verapamil, donor 2 mg/mL Fpx, 37°C): 7.8 µg/mL
- factor of increase of Fpx fluxes in the presence of verapamil ([2]; net fluxes at 180 min, verapamil in serosal side, vs free Fpx): 4.2
Structure (SMILES): CO[C@H]1O[C@H](COS(=O)(=O)O)[C@@H](O[C@@H]2O[C@@H](C(=O)O)[C@@H](O[C@H]3O[C@H](COS(=O)(=O)O)[C@@H](O[C@@H]4O[C@H](C(=O)O)[C@@H](O[C@H]5O[C@H](COS(=O)(=O)O)[C@@H](O)[C@H](O)[C@H]5NS(=O)(=O)O)[C@H](O)[C@H]4O)[C@H](OS(=O)(=O)O)[C@H]3NS(=O)(=O)O)[C@H](O)[C@H]2OS(=O)(=O)O)[C@H](O)[C@H]1NS(=O)(=O)O [Fpx, Fondaparinux]
